In the NIST ThermoML archive (doi:10.1021/acs.jced.7b01035):
Numbers after ± are expanded uncertainties.

Test: wn = mass fraction of the nth substance listed
Details: 500 kPa, Liquid, Concentric cylinders viscometry

NCCCO [3-amino-1-propanol] + O
viscosity (298.15 K, w1 = 0.1): 1.27 ± 0.32 mPa·s
viscosity (298.15 K, w1 = 0.2): 1.84 ± 0.34 mPa·s
viscosity (298.15 K, w1 = 0.3): 2.95 ± 0.42 mPa·s
viscosity (298.15 K, w1 = 0.4): 4.76 ± 0.55 mPa·s
viscosity (298.15 K, w1 = 0.5): 7.58 ± 0.8 mPa·s
viscosity (298.15 K, w1 = 0.6): 12.17 ± 1.1 mPa·s
viscosity (298.15 K, w1 = 0.7): 18.56 ± 1.4 mPa·s
viscosity (298.15 K, w1 = 0.8): 26.23 ± 1.1 mPa·s
viscosity (298.15 K, w1 = 0.9): 29.26 ± 0.53 mPa·s
viscosity (298.15 K, w1 = 1): 30.43 ± 0.33 mPa·s
viscosity (303.15 K, w1 = 0.1): 1.14 ± 0.32 mPa·s
viscosity (303.15 K, w1 = 0.2): 1.62 ± 0.33 mPa·s
viscosity (303.15 K, w1 = 0.3): 2.5 ± 0.38 mPa·s
viscosity (303.15 K, w1 = 0.4): 3.97 ± 0.48 mPa·s
viscosity (303.15 K, w1 = 0.5): 6.18 ± 0.64 mPa·s
viscosity (303.15 K, w1 = 0.6): 9.64 ± 0.89 mPa·s
viscosity (303.15 K, w1 = 0.7): 14.5 ± 1.2 mPa·s
viscosity (303.15 K, w1 = 0.8): 20.98 ± 0.88 mPa·s
viscosity (303.15 K, w1 = 0.9): 22.76 ± 0.43 mPa·s
viscosity (303.15 K, w1 = 1): 23.87 ± 0.32 mPa·s
viscosity (308.15 K, w1 = 0.1): 1.01 ± 0.31 mPa·s
viscosity (308.15 K, w1 = 0.2): 1.41 ± 0.32 mPa·s
viscosity (308.15 K, w1 = 0.3): 2.15 ± 0.36 mPa·s
viscosity (308.15 K, w1 = 0.4): 3.34 ± 0.42 mPa·s
viscosity (308.15 K, w1 = 0.5): 5.1 ± 0.53 mPa·s
viscosity (308.15 K, w1 = 0.6): 7.69 ± 0.71 mPa·s
viscosity (308.15 K, w1 = 0.7): 11.48 ± 0.86 mPa·s
viscosity (308.15 K, w1 = 0.8): 15.73 ± 0.72 mPa·s
viscosity (308.15 K, w1 = 0.9): 17.96 ± 0.46 mPa·s
viscosity (308.15 K, w1 = 1): 19.07 ± 0.31 mPa·s
viscosity (313.15 K, w1 = 0.1): 0.89 ± 0.31 mPa·s
viscosity (313.15 K, w1 = 0.2): 1.25 ± 0.31 mPa·s
viscosity (313.15 K, w1 = 0.3): 1.82 ± 0.34 mPa·s
viscosity (313.15 K, w1 = 0.4): 2.82 ± 0.39 mPa·s
viscosity (313.15 K, w1 = 0.5): 4.23 ± 0.46 mPa·s
viscosity (313.15 K, w1 = 0.6): 6.25 ± 0.58 mPa·s
viscosity (313.15 K, w1 = 0.7): 9.21 ± 0.7 mPa·s
viscosity (313.15 K, w1 = 0.8): 12.52 ± 0.6 mPa·s
viscosity (313.15 K, w1 = 0.9): 14.36 ± 0.41 mPa·s
viscosity (313.15 K, w1 = 1): 15.27 ± 0.31 mPa·s
viscosity (318.15 K, w1 = 0.1): 0.81 ± 0.31 mPa·s
viscosity (318.15 K, w1 = 0.2): 1.12 ± 0.31 mPa·s
viscosity (318.15 K, w1 = 0.3): 1.59 ± 0.33 mPa·s
viscosity (318.15 K, w1 = 0.4): 2.42 ± 0.36 mPa·s
viscosity (318.15 K, w1 = 0.5): 3.59 ± 0.41 mPa·s
viscosity (318.15 K, w1 = 0.6): 5.17 ± 0.49 mPa·s
viscosity (318.15 K, w1 = 0.7): 7.5 ± 0.58 mPa·s
viscosity (318.15 K, w1 = 0.8): 10.09 ± 0.51 mPa·s
viscosity (318.15 K, w1 = 0.9): 11.6 ± 0.38 mPa·s
viscosity (318.15 K, w1 = 1): 12.36 ± 0.31 mPa·s
viscosity (323.15 K, w1 = 0.1): 0.75 ± 0.3 mPa·s
viscosity (323.15 K, w1 = 0.2): 1.01 ± 0.31 mPa·s
viscosity (323.15 K, w1 = 0.3): 1.4 ± 0.32 mPa·s
viscosity (323.15 K, w1 = 0.4): 2.11 ± 0.34 mPa·s
viscosity (323.15 K, w1 = 0.5): 3.07 ± 0.37 mPa·s
viscosity (323.15 K, w1 = 0.6): 4.34 ± 0.43 mPa·s
viscosity (323.15 K, w1 = 0.7): 6.17 ± 0.49 mPa·s
viscosity (323.15 K, w1 = 0.8): 8.24 ± 0.45 mPa·s
viscosity (323.15 K, w1 = 0.9): 9.47 ± 0.36 mPa·s
viscosity (323.15 K, w1 = 1): 10.22 ± 0.3 mPa·s
viscosity (328.15 K, w1 = 0.1): 0.72 ± 0.3 mPa·s
viscosity (328.15 K, w1 = 0.2): 0.92 ± 0.3 mPa·s
viscosity (328.15 K, w1 = 0.3): 1.24 ± 0.31 mPa·s
viscosity (328.15 K, w1 = 0.4): 1.86 ± 0.33 mPa·s
viscosity (328.15 K, w1 = 0.5): 2.65 ± 0.35 mPa·s
viscosity (328.15 K, w1 = 0.6): 3.69 ± 0.39 mPa·s
viscosity (328.15 K, w1 = 0.7): 5.14 ± 0.43 mPa·s
viscosity (328.15 K, w1 = 0.8): 6.81 ± 0.4 mPa·s
viscosity (328.15 K, w1 = 0.9): 7.78 ± 0.35 mPa·s
viscosity (328.15 K, w1 = 1): 8.54 ± 0.3 mPa·s
viscosity (333.15 K, w1 = 0.1): 0.66 ± 0.3 mPa·s
viscosity (333.15 K, w1 = 0.2): 0.84 ± 0.3 mPa·s
viscosity (333.15 K, w1 = 0.3): 1.1 ± 0.31 mPa·s
viscosity (333.15 K, w1 = 0.4): 1.66 ± 0.32 mPa·s
viscosity (333.15 K, w1 = 0.5): 2.31 ± 0.34 mPa·s
viscosity (333.15 K, w1 = 0.6): 3.17 ± 0.36 mPa·s
viscosity (333.15 K, w1 = 0.7): 4.33 ± 0.39 mPa·s
viscosity (333.15 K, w1 = 0.8): 5.68 ± 0.37 mPa·s
viscosity (333.15 K, w1 = 0.9): 6.47 ± 0.33 mPa·s
viscosity (333.15 K, w1 = 1): 7.12 ± 0.3 mPa·s
viscosity (338.15 K, w1 = 0.1): 0.61 ± 0.3 mPa·s
viscosity (338.15 K, w1 = 0.2): 0.76 ± 0.3 mPa·s
viscosity (338.15 K, w1 = 0.3): 0.99 ± 0.31 mPa·s
viscosity (338.15 K, w1 = 0.4): 1.47 ± 0.32 mPa·s
viscosity (338.15 K, w1 = 0.5): 2.03 ± 0.33 mPa·s
viscosity (338.15 K, w1 = 0.6): 2.74 ± 0.34 mPa·s
viscosity (338.15 K, w1 = 0.7): 3.67 ± 0.36 mPa·s
viscosity (338.15 K, w1 = 0.8): 4.79 ± 0.35 mPa·s
viscosity (338.15 K, w1 = 0.9): 5.43 ± 0.33 mPa·s
viscosity (338.15 K, w1 = 1): 6.05 ± 0.3 mPa·s
viscosity (343.15 K, w1 = 0.1): 0.58 mPa·s
viscosity (343.15 K, w1 = 0.2): 0.73 ± 0.3 mPa·s
viscosity (343.15 K, w1 = 0.3): 0.9 ± 0.31 mPa·s
viscosity (343.15 K, w1 = 0.4): 1.32 ± 0.31 mPa·s
viscosity (343.15 K, w1 = 0.5): 1.81 ± 0.32 mPa·s
viscosity (343.15 K, w1 = 0.6): 2.39 ± 0.33 mPa·s
viscosity (343.15 K, w1 = 0.7): 3.15 ± 0.34 mPa·s
viscosity (343.15 K, w1 = 0.8): 4.08 ± 0.33 mPa·s
viscosity (343.15 K, w1 = 0.9): 4.61 ± 0.31 mPa·s
viscosity (343.15 K, w1 = 1): 4.84 ± 0.3 mPa·s
viscosity (348.15 K, w1 = 0.1): 0.57 mPa·s
viscosity (348.15 K, w1 = 0.2): 0.7 ± 0.3 mPa·s
viscosity (348.15 K, w1 = 0.3): 0.82 ± 0.3 mPa·s
viscosity (348.15 K, w1 = 0.4): 1.2 ± 0.31 mPa·s
viscosity (348.15 K, w1 = 0.5): 1.64 ± 0.31 mPa·s
viscosity (348.15 K, w1 = 0.6): 2.09 ± 0.32 mPa·s
viscosity (348.15 K, w1 = 0.7): 2.72 ± 0.33 mPa·s
viscosity (348.15 K, w1 = 0.8): 3.51 ± 0.32 mPa·s
viscosity (348.15 K, w1 = 0.9): 3.93 ± 0.31 mPa·s
viscosity (348.15 K, w1 = 1): 4.17 ± 0.3 mPa·s
viscosity (353.15 K, w1 = 0.1): 0.55 mPa·s
viscosity (353.15 K, w1 = 0.2): 0.67 ± 0.3 mPa·s
viscosity (353.15 K, w1 = 0.3): 0.75 ± 0.3 mPa·s
viscosity (353.15 K, w1 = 0.4): 1.08 ± 0.31 mPa·s
viscosity (353.15 K, w1 = 0.5): 1.46 ± 0.31 mPa·s
viscosity (353.15 K, w1 = 0.6): 1.85 ± 0.31 mPa·s
viscosity (353.15 K, w1 = 0.7): 2.37 ± 0.32 mPa·s
viscosity (353.15 K, w1 = 0.8): 3.03 ± 0.32 mPa·s
viscosity (353.15 K, w1 = 0.9): 3.39 ± 0.31 mPa·s
viscosity (353.15 K, w1 = 1): 3.63 ± 0.3 mPa·s
viscosity (358.15 K, w1 = 0.1): 0.41 mPa·s
viscosity (358.15 K, w1 = 0.2): 0.54 mPa·s
viscosity (358.15 K, w1 = 0.3): 0.69 ± 0.3 mPa·s
viscosity (358.15 K, w1 = 0.4): 0.99 ± 0.31 mPa·s
viscosity (358.15 K, w1 = 0.5): 1.32 ± 0.31 mPa·s
viscosity (358.15 K, w1 = 0.6): 1.68 ± 0.31 mPa·s
viscosity (358.15 K, w1 = 0.7): 2.09 ± 0.32 mPa·s
viscosity (358.15 K, w1 = 0.8): 2.7 ± 0.31 mPa·s
viscosity (358.15 K, w1 = 0.9): 2.93 ± 0.3 mPa·s
viscosity (358.15 K, w1 = 1): 3.19 ± 0.3 mPa·s
viscosity (363.15 K, w1 = 0.1): 0.39 mPa·s
viscosity (363.15 K, w1 = 0.2): 0.49 mPa·s
viscosity (363.15 K, w1 = 0.3): 0.65 ± 0.3 mPa·s
viscosity (363.15 K, w1 = 0.4): 0.93 ± 0.31 mPa·s
viscosity (363.15 K, w1 = 0.5): 1.25 ± 0.31 mPa·s
viscosity (363.15 K, w1 = 0.6): 1.51 ± 0.31 mPa·s
viscosity (363.15 K, w1 = 0.7): 1.86 ± 0.31 mPa·s
viscosity (363.15 K, w1 = 0.8): 2.4 ± 0.31 mPa·s
viscosity (363.15 K, w1 = 0.9): 2.56 ± 0.3 mPa·s
viscosity (363.15 K, w1 = 1): 2.73 ± 0.3 mPa·s
viscosity (368.15 K, w1 = 0.1): 0.37 mPa·s
viscosity (368.15 K, w1 = 0.2): 0.47 mPa·s
viscosity (368.15 K, w1 = 0.3): 0.63 ± 0.3 mPa·s
viscosity (368.15 K, w1 = 0.4): 0.88 ± 0.3 mPa·s
viscosity (368.15 K, w1 = 0.5): 1.16 ± 0.3 mPa·s
viscosity (368.15 K, w1 = 0.6): 1.37 ± 0.3 mPa·s
viscosity (368.15 K, w1 = 0.7): 1.66 ± 0.31 mPa·s
viscosity (368.15 K, w1 = 0.8): 2.13 ± 0.31 mPa·s
viscosity (368.15 K, w1 = 0.9): 2.24 ± 0.3 mPa·s
viscosity (368.15 K, w1 = 1): 2.52 ± 0.3 mPa·s
viscosity (373.15 K, w1 = 0.1): 0.35 mPa·s
viscosity (373.15 K, w1 = 0.2): 0.44 mPa·s
viscosity (373.15 K, w1 = 0.3): 0.59 mPa·s
viscosity (373.15 K, w1 = 0.4): 0.82 ± 0.3 mPa·s
viscosity (373.15 K, w1 = 0.5): 1.05 ± 0.3 mPa·s
viscosity (373.15 K, w1 = 0.6): 1.26 ± 0.3 mPa·s
viscosity (373.15 K, w1 = 0.7): 1.49 ± 0.31 mPa·s
viscosity (373.15 K, w1 = 0.8): 1.91 ± 0.3 mPa·s
viscosity (373.15 K, w1 = 0.9): 1.98 ± 0.3 mPa·s
viscosity (373.15 K, w1 = 1): 2.25 ± 0.3 mPa·s
